Values quoted from earlier work as cited in US7892838B2, “Method for the in vivo modification of the synthesis activity of a metabolite by means of the modification of a gene the activity of which is not the original activity” (Institut Pasteur, priority 2003, dated 2011).

System: HIV (human immunodeficiency virus)

| Compound | inhibition of the replication of HIV |
| --- | --- |
| Nc1ncnc2c1ncn2[C@H]1CC[C@@H](CO)O1 [ddA, 2′,3′-dideoxyadenosine] | effectively inhibit the replication of HIV |
| OC[C@@H]1CC[C@H](n2cnc3c(O)ncnc32)O1 [ddI, 2′,3′-dideoxyinosine] | effectively inhibit the replication of HIV |
